Where two headings read alike, the source gives them in different places.
Key:
SH—SY5Y cells = assay: Neuroblastoma cell viability assay (WST-1), SH—SY5Y; assay type: cell-based, human
N1E 115 cells = assay: Neuroblastoma cell viability assay (WST-1), N1E 115; assay type: cell-based, murine; details: N1E 115, 96 hours
[1] = Fe^2+ chelation assay (ferrozine, cell-free)
[2] = cell-free, 0.5 mM FeSO4, 1 mM ferrozine, titration curves, absorbance 562 nm
[3] = SH—SY5Y, 96 hours, dose-response

| SMILES | effect on cell number (dose-response curve) (N1E 115 cells) | inhibition of Fe(ferrozine)3^2+ complex formation [1, 2] | effect on cell number (dose-response curve) (SH—SY5Y cells; [3]) | further results |
| --- | --- | --- | --- | --- |
| CC(C)=CCC[C@]1(C)[C@@H](CC=C(C)C)C[C@@]2(CC=C(C)C)C(=O)[C@]1(C(=O)C(C)C)C(=O)C(CC=C(C)C)=C2O [hyperforin] | significant and dose-dependent suppression of cell number | – | – | effect on cell number (dose-response curve) (SH—SY5Y cells): significant and dose-dependent suppression of cell number |
| CC(C)=CCC[C@](C)(O[C@@H]1O[C@H](CO[C@@H]2O[C@H](CO)[C@@H](O)[C@H](O)[C@H]2O)[C@@H](O)[C@H](O)[C@H]1O)[C@H]1CC[C@]2(C)[C@@H]1[C@H](O)C[C@@H]1[C@@]3(C)CC[C@H](O[C@@H]4O[C@H](CO)[C@@H](O)[C@H](O)[C@H]4O[C@@H]4O[C@H](CO)[C@@H](O)[C@H](O)[C@H]4O)C(C)(C)[C@@H]3CC[C@]12C [Rb1, ginsenoside Rb1] | – | demonstrated the ability to inhibit Fe^2+ interaction with ferrozine | – | – |
| CC(C)=CCC[C@](C)(O[C@@H]1O[C@H](CO)[C@@H](O)[C@H](O)[C@H]1O)[C@H]1CC[C@]2(C)[C@@H]1[C@H](O)C[C@@H]1[C@@]3(C)CC[C@H](O[C@@H]4O[C@H](CO)[C@@H](O)[C@H](O)[C@H]4O[C@@H]4O[C@H](CO)[C@@H](O)[C@H](O)[C@H]4O)C(C)(C)[C@@H]3CC[C@]12C [Rd, ginsenoside Rd] | – | demonstrated the ability to inhibit Fe^2+ interaction with ferrozine | – | – |
| O=c1c(O)c(-c2ccc(O)c(O)c2)oc2cc(O)cc(O)c12 [quercetin] | significant inhibition of cell number | able to inhibit Fe(ferrozine)3^2+ complex formation | significant inhibition of cell number | concentration at which significant (P<0.05) inhibition of cell number is first apparent (SH—SY5Y cells; SH—SY5Y, 96 hours): 5 µg/mL; concentration at which significant (P<0.05) inhibition of cell number is first apparent (N1E 115 cells): 5 µg/mL |
| CC1C(=O)OC2C(O)C34C5CC(C(C)(C)C)C36C(OC(=O)C6O)OC4(C(=O)O5)C12O (stereo not shown) [ginkgolide B] | Only quercetin demonstrated significant inhibition of cell number | no activity | Only quercetin demonstrated significant inhibition of cell number | – |
| CC(C)=CCC[C@](C)(O[C@@H]1O[C@H](CO[C@@H]2O[C@@H](CO)[C@H](O)[C@H]2O)[C@@H](O)[C@H](O)[C@H]1O)[C@H]1CC[C@]2(C)[C@@H]1[C@H](O)C[C@@H]1[C@@]3(C)CC[C@H](O[C@@H]4O[C@H](CO)[C@@H](O)[C@H](O)[C@H]4O[C@@H]4O[C@H](CO)[C@@H](O)[C@H](O)[C@H]4O)C(C)(C)[C@@H]3CC[C@]12C [Rc, ginsenoside Rc] | – | demonstrated the ability to inhibit Fe^2+ interaction with ferrozine | – | – |
| CC(=O)N(O)CCCCCNC(=O)CCC(=O)N(O)CCCCCNC(=O)CCC(=O)N(O)CCCCCN [DFO, desferroxamine, reference compound] | suppress neuroblastoma cell number | able to prevent Fe(ferrozine)3^2+ complex formation | biphasic effects | – |
| C[C@@H]1C(=O)O[C@H]2C[C@@]34[C@H]5C[C@@H](C(C)(C)C)[C@]36[C@@H](OC(=O)[C@@H]6O)O[C@@]4(C(=O)O5)[C@]21O [ginkgolide A] | Only quercetin demonstrated significant inhibition of cell number | – | Only quercetin demonstrated significant inhibition of cell number | inhibition of Fe(ferrozine)3^2+ complex formation [1]: no activity |

Reference: US20080292733A1, “Antioxidant and Fe2+ Chelating Properties of Herbal Extracts” (priority 2005, published 2008)
